This is an account of results in ChEMBL document CHEMBL3046524, “Synthesis and biological evaluation of N 1,N 2-bis-[4-(t-amino)-2-butynyl]phthalamides as oxotremorine and acetylcholine antagonists” (Med Chem Res, 2013).

Activity calls are given as the source filed them. The rule behind the calls is not given here.

The subject of assay [1] is Ileum. Put plainly: Ionotropic activity in Cavia porcellus (guinea pig) ileum assessed as inhibition of acetylcholine-induced contraction after 15 min by physiographic analysis. The settings on record: 0.25 h, read-out: pA2 (converted). The assay is classed as functional, tissue-based.
The subject of assay [2] is Ileum. Put plainly: Ionotropic activity in Cavia porcellus (guinea pig) ileum assessed as concentration required to inhibit acetylcholine-induced contraction after 15 min by physiographic analysis. It is filed as functional.
The subject of assay [3] is Mus musculus. Briefly: Antitremor activity in ip dosed Mus musculus (mouse) assessed as inhibition of oxotremorine-induced tremor effect administered 15 to 20 min prior to oxotremorine challenge measured 15 to 20 min post oxotremorine challenge. The assay is classed as functional, organism-based.
In assay [4] the test system is Mus musculus. Briefly: Antitremor activity in ip dosed Mus musculus (mouse) assessed as concentration required to inhibit oxotremorine-induced tremor effect administered 15 to 20 min prior to oxotremorine challenge measured 15 to 20 min post oxotremorine challenge. It is filed as functional.

On to `CC1CCCC(C)N1CC#CCNC(=O)c1ccccc1C(=O)NCC#CCN1C(C)CCCC1C` (stereo not given), for which the Kb in assay [1] is 1580 nM. For the same compound, in assay [2], the INH amounted to 3 ×10⁻⁶ mol/L. The inhibition entry in assay [3] is “inactive”.
Turning to `CN1[C@@H]2CC[C@H]1C[C@@H](OC(=O)C(CO)c1ccccc1)C2` (stereo not given in full) [ATROPINE], the Kb in assay [1] was 3.98 nM. The INH in assay [4] turned out to be 2.8 µmol/kg; in assay [2], 3.7 ×10⁻⁹ mol/L.
`CC1CCCC(C)N1CC#CCN1C(=O)c2ccccc2C1=O` (stereo not given): in assay [1], the Kb was 2000 nM. For the same compound, the INH in assay [2] came out at 2 ×10⁻⁶ mol/L. Moreover, the inhibition entry in assay [3] is “inactive”.
`O=C1c2ccccc2C(=O)N1CC#CCN1CCCCC1`: the Kb in assay [1] is 1580 nM. The INH in assay [4] was found to be 7.6 µmol/kg; in assay [2] it was 1.6 ×10⁻⁶ mol/L.
For `O=C(NCC#CCN1CCCCC1)c1ccccc1C(=O)NCC#CCN1CCCCC1` the same measures were 2510 nM, 8 µmol/kg and 1.6 ×10⁻⁶ mol/L.
`CC1CCCCN1CC#CCNC(=O)c1ccccc1C(=O)NCC#CCN1CCCCC1C` (stereo not given): the Kb in assay [1] is 2000 nM. In addition, in assay [2], the INH is on record as 1.2 ×10⁻⁶ mol/L.
For `CC1CCCCN1CC#CCN1C(=O)c2ccccc2C1=O` (stereo not given), in assay [1], the Kb was 1260 nM. Also, the INH in assay [4] amounted to 9.6 µmol/kg; in assay [2], 1.2 ×10⁻⁶ mol/L.
Regarding `O=C(NCC#CCN1CCCCCCC1)c1ccccc1C(=O)NCC#CCN1CCCCCCC1`, the Kb in assay [1] was 1260 nM. For the same compound, in assay [2], the INH worked out at 5 ×10⁻⁶ mol/L.
Turning to `O=C1c2ccccc2C(=O)N1CC#CCN1CCCCCCC1`, the Kb in assay [1] is 794 nM. Further, the INH was determined as 2.4 µmol/kg in assay [4] and 8 ×10⁻⁷ mol/L in assay [2].
